Like-named read-outs stand apart in the source and are kept apart here.
How the values were obtained:
Type in all cases: cell-based
[1] = tested on: Oscillatoria lutea, Anabaena cylindrica, and Chlorella pyrenoidosa; experiment: Algastatic effect on heavy algal growth in aquariums; conditions: for regrowth of algae (in words): after total elapsed time of 19 days, all titratable chlorine disappeared; for Percent Total Potential Positive Chlorine Remaining: algal aquarium; for algastatic / algacidal effect (in words): extended periods, water containing heavy algal growth; for decoloration / bleaching of algae (in words): within 2 days for Cpd 1 (9.9 mg per liter Cl+), Cpd 3 at 4.9 mg per liter
Source text: Two 10 gallon aquariums each containing 35 liters of Bristol's solution (described by R. C. Starr in the article "The Culture Collection of Algae at the University of Texas", J. Phycology, 14, 47 (1978)) at pH 6.8 were inoculated with a mixture of three species of algae; Oscillatoria lutea, Anabaena cylindrica, and Chlorella pyrenoidosa. The 2 aquariums were continually aerated and each illuminated by a 20 watt Gro-lux lamp placed 15 centimeters from the side of the aquarium. The experiment was conducted at ambient temperature which ranged between 21° and 24° C.
After a 34 day growth period the heavy algal cell density was measured by direct counts using a hemacytometer. The cell density in aquarium A at this time was 2.2×10^7 cells per milliliter, while that in aquarium B was 6.6×10^6 cells per milliliter. The absorbances of the two solutions at 750 nanometers were also measured at that time and found to be 0.273 for aquarium A and 0.112 for aquarium B. The absorbance at 750 nanometers has been employed as an index of algal chlorophyll concentration ("Standard methods for the Examination of Water and Wastewater", 16th edition, American Public Health Association, Washington, D.C., 1985, p. 1070). Then a solution of 1.042 grams of 1,3-dichloro-2,2,5,5-tetramethylimidazolidin-4-one (Compound 1) as prepared in example 3 in 500 milliliters of demand-free water (DFW) was added to aquarium A resulting in an initial potential positive chlorine concentration of 9.9 milligrams per liter in that aquarium. Similarly a solution of 0.872 gram of 1-chloro-2,2,5,5-tetramethylimidazolidin-4-one (Compound 3) as prepared in example 6 in 500 milliliters of DFW was added to aquarium B resulting in an initial potential positive chlorine concentration of 4.9 milligrams per liter in that aquarium. The aquariums were sampled periodically and analyzed for algal growth by means of absorbance measurements at 750 nanometers using a Milton Roy Spectronic 301 spectrophotometer and for total potential positive chlorine concentration using standard iodometric titration. […] Following the loss of all total potential positive chlorine from the aquariums, second additions of 0.87 grams of Compound 3 and of 1.042 grams of Compound 1 were made to aquariums B and A, respectively.

[2] = tested on: Pseudomonas aeruginosa (ATCC 27853); experiment: Bactericidal efficacy, percent inactivation of P. aeruginosa; conditions: pH 7.0, 22° C., DFW
Protocol: The halogenated imidazolidin-4-one derivatives prepared as in examples 3, 5, and 6 (Compounds 1, 5, and 3, respectively) were tested as bactericides against the microorganisms Staphylococcus aureus (ATCC25923) and Pseudomonas aeruginosa (ATCC 27853) in demand-free water (DFW) as a function of pH and temperature and in a synthetic-demand water (SDW) at pH 9.5 and 4° C. The demand-free and synthetic-demand waters were prepared as described in examples 7 and 12, respectively.
For the bactericidal efficacy tests 50 milliliters of buffered DFW or SDW were placed in a 125 milliliter flask which was then inoculated with the organism to be tested such that the final density of the organism was about 1×10^6 cfu/ml (colony forming units per milliliter). The inoculated solution was allowed to equilibrate at the test temperature by immersion in a thermostated water bath for 15 minutes with constant stirring. Then an appropriate amount of an aqueous solution containing the test halogenated imidazolidin-4-one compound maintained at the same test temperature was added to the inoculated solution to bring the total concentration of potential positive halogen (Cl^+ or Cl^+ /Br^+) in the mixture to a predetermined level (10 parts per million and 5 parts per million Cl^+ from compounds 1 and 3; the molar equivalent in Cl^+ /Br^+ from Compound 5). 1 milliliter aliquots were removed from the test mixture at various predetermined times, and the active halogen was quenched by 1 milliliter portions of sterile 0.02 Normal sodium thiosulfate. Serial dilutions were made into sterile saline, and three 25 microliter aliquots of each of the resulting dilutions were applied to the dried surface of a Petri dish containing tryptic soy and nutrient agars for plating S. aureus and P. aeruginosa, respectively. After 48 hours at 37° C. the three replicates for each dilution were counted and averaged. This average was used to compute the cfu/ml for that particular aliquot. Inactivation of the organism was considered to be at least 99.9999 percent when no colonies were detected in the thiosulfate quenched aliquots.

[3] = tested on: Staphylococcus aureus (ATCC 25923); experiment: Disinfection of hard surfaces (modified AOAC Use-Dilution Method, stainless steel cylinders); conditions: for bacterial growth after contact (in words): 25, 50, 100, 200 ppm positive chlorine (molar equivalents for Cpd 5), pH 7.0, 10 minutes contact; for minimal effective concentration: Staphylococcus aureus, ATCC25923, 10 min, 10 minutes contact, pH 7.0, read-out: effective hard surface disinfectant concentration
Protocol: The efficacies of compounds 1 and 5 as hard surface disinfectants were assessed by using a modification of the AOAC Use-Dilution Method as described in "Official Methods of Analysis of the Association of Official Analytical Chemists", ed. W. Horwitz, A.O.A.C., Washington, D.C., 1989, pp. 58-59. Small stainless steel cylinders (Penicylinders from Fisher Scientific) were cleaned with 1 Normal sodium hydroxide solution, sterilized in 0.1 percent asparagine in an autoclave, and cooled to ambient temperature. The cylinders were then inoculated with Staphylococcus aureus (ATCC 25923) by placing them in a 24 hour old nutrient broth culture of the organism for 15 minutes. The cylinders were aseptically removed from the broth, placed in a sterile petri dish upon filter paper for draining, and dried at 37° C. in an incubator for 60 minutes.
The halogenated imidazolidin-4-ones were dissolved in demand-free water buffered at pH 7.0 at concentrations of 25, 50, 100, and 200 parts per million of potential ionizable positive chlorine for Compound 1 (or molar equivalents of total potential ionizable positive halogen for Compound 5), and 2 milliliter aliquots of the solutions were added to each of a series of sterile culture tubes. Control solutions of pH 7.0 demand-free water were also added to a series of tubes. At least 10 tubes at each concentration of disinfectant were employed. Then an inoculated metal cylinder was added to each tube containing disinfectant and each control tube at exactly 30 second intervals. After exactly 10 minutes contact time the cylinders were removed from the tubes at 30 second intervals in the same order as was used for their addition, i.e. the contact time was 10 minutes for all cylinders. Each metal cylinder was placed into a culture tube containing 3 milliliters of nutrient broth and 0.01 normal sodium thiosulfate to quench disinfectant action. All tubes were examined for bacterial growth (inspected for the presence or absence of turbidity) following 48 hours of incubation at 37° C.

[4] = day 0, initial 9.9 (Cpd 1) or 4.9 (Cpd 3) mg per liter
[5] = day 6 (then additional 0.87 grams of Cpd 3 added), 8640 min
[6] = day 10 (then additional 1.042 grams of Cpd 1 added), 14400 min
[7] = day 0 (before addition), initial Cl+ 9.9 (Cpd 1) or 4.9 (Cpd 3) mg per liter
[8] = day 1, initial Cl+ 9.9 (Cpd 1) or 4.9 (Cpd 3) mg per liter
[9] = day 3, initial Cl+ 9.9 (Cpd 1) or 4.9 (Cpd 3) mg per liter
[10] = day 8, second addition of Cpd 3 at day 6
[11] = day 10, second addition of Cpd 3 at day 6, of Cpd 1 at day 10
[12] = day 19, after second additions, no titratable chlorine left

SMILES | regrowth of algae (in words) [1] | Percent Total Potential Positive Chlorine Remaining [1, 4] | Percent Total Potential Positive Chlorine Remaining ([1]; day 1) | Percent Total Potential Positive Chlorine Remaining ([1]; day 3) | Percent Total Potential Positive Chlorine Remaining [1, 5] | Percent Total Potential Positive Chlorine Remaining ([1]; day 7) | Percent Total Potential Positive Chlorine Remaining ([1]; day 8) | Percent Total Potential Positive Chlorine Remaining [1, 6] | Percent Total Potential Positive Chlorine Remaining ([1]; day 16) | A750 (Absorbance at 750 Nanometers) [1, 7] | A750 (Absorbance at 750 Nanometers) [1, 8] | A750 (Absorbance at 750 Nanometers) [1, 9] | A750 (Absorbance at 750 Nanometers) [1, 10] | A750 (Absorbance at 750 Nanometers) [1, 11] | A750 (Absorbance at 750 Nanometers) ([1]; day 16, after second additions) | A750 (Absorbance at 750 Nanometers) [1, 12] | algastatic / algacidal effect (in words) [1] | decoloration / bleaching of algae (in words) [1] | killing at 5 ppm ([2]; ATCC27853, 5 min, 5 minutes) | killing at 5 ppm ([2]; ATCC27853, 10 min, 10 minutes) | other results
CC1(C)NC(=O)C(C)(C)N1Cl [Compound 3, 1-chloro-2,2,5,5-tetramethylimidazolidin-4-one] | the algae began to grow again | 100.0% | 71.8% | 31.0% | 0.0% | 77.3% | 47.6% | 17.3% | 0.0% | 0.112 | 0.063 | 0.066 | 0.021 | 0.012 | 0.007 | 0.010 | algastatic, but not algacidal | a longer time period for decoloration | – | – | –
CC1(C)C(=O)N(Cl)C(C)(C)N1Cl [Compound 1, 1,3-dichloro-2,2,5,5-tetramethylimidazolidin-4-one] | the algae began to grow again | 100.0% | 82.9% | 44.4% | 13.8% | 7.0% | 3.4% | 0.0% | 34.7% | 0.273 | 0.064 | 0.081 | 0.058 | 0.038 | 0.020 | 0.055 | algastatic, but not algacidal | only white turbidity resulting from the bleaching of the algae | > 100% | > 100% | bacterial growth after contact (in words) [3]: none of the tubes containing compounds 1 or 5 at any of the concentration levels exhibited bacterial growth; minimal effective concentration ([3]; potential ionizable positive chlorine): ≤ 25 µg/mL; time to noticeable loss of green coloration ([1]; Cpd 1 at 9.9 mg per liter Cl+): ≤ 4 h
CC1(C)C(=O)N(Cl)C(C)(C)N1Br [Compound 5, 1-bromo-3-chloro-2,2,5,5-tetramethylimidazolidin-4-one] | – | – | – | – | – | – | – | – | – | – | – | – | – | – | – | – | – | – | > 100% | > 100% | bacterial growth after contact (in words) [3]: none of the tubes containing compounds 1 or 5 at any of the concentration levels exhibited bacterial growth; minimal effective concentration ([3]; total potential positive halogen): ≤ 40.7 µg/mL

From US5126057A, “Disinfecting with N,N'-dihaloimidazolidin-4-ones” (Auburn Research Foundation, priority 1991, dated 1992)
